The text below walks through data of patent US12612401B2, “Crystalline forms of an S1P receptor modulator” (Oppilan Pharma Limited, priority 2022, dated 2026).

What is called pEC50 is the negative decadic logarithm of the EC50, by convention in mol/L. Lower therefore signals a high EC50.

One data set has as its target T1, human S1P1 (Homo sapiens, UniProt P21453).
T1 construct: CHO-Ki Gαqi5 cells expression full-length human S1P1; expressed in transfected cells; host or cells: CHO-K1 Gαqi5 cells (printed 'CHO-Ki Gαqi5'), membranes
Kind of data set: GTPγS binding assay (scintillation proximity assay). In kind it is biochemical. The following applies: S1P1 membrane from CHO cells expressing full-length human S1P1; GTPγ35S, 60 minutes. As to the method: S1P1 membrane is prepared from CHO-Ki Gαqi5 cells expression full-length human S1P1. Scintillation proximity assay (SPA) is performed by incubating membranes, GTPγ^35S, and compounds at various concentrations for 60 minutes. Wheat germ agglutinin-coated SPA beads are added and incubated for 60 minutes before centrifugation and scintillation counting. EC50 data for Compound 1 found to be <1 μM.
A general note: GTPγS resists hydrolysis and so accumulates on activated G proteins.

A short description of data set [1]: Thermodynamic stability relationship of anhydrates (heating; slurry competition). The following applies: for XRPD result, slurry competition Form 6 and Form 1: five days. Format: physicochemical. Here is the method:
As a result, slurry competition was performed for Form 6 and Form 1 in acetone and THF systems at 5° C., RT and 50° C. After stirring at desired temperature for five days, the solids were isolated and analyzed by XRPD.

A short description of data set [2]: Solubility evaluation of Form 1 and Form 2 in DCM/MeOH. Format: physicochemical. The following applies: for concentration dissolved in DCM/MeOH: room temperature or 50° C. As to the method:
The solubility of Form 1 and Form 2 was evaluated in the same vehicle. Form 1 or Form 2 was added into DCM/MeOH and stirred to dissolve at room temperature or 50° C. A certain amount of HPMC-AS was then added into solution at room temperature, if a clear solution was obtained. Form 2 dissolved in DCM/MeOH at a concentration of 13 mg/mL, while Form 1 dissolved in a lower concentration, 10 mg/mL.

The nature of data set [3]: Stability study of Form 1 on storage (XRPD and HPLC). In kind it is physicochemical. The following applies: 80° C. for one day; 25° C./60% RH and 40° C./75% RH for one week and one month. Here is the method: Physicochemical stability was evaluated for Form 1 via storing samples under 80° C. for one day, 25° C./60% RH and 40° C./75% RH for one week and one month.
A short description of data set [4]: Dynamic vapor sorption (DVS). In kind it is physicochemical. The following applies: 25° C. As to the method:
DVS studies were performed using a DVS Intrinsic (SMS, UK). 10 to 20 mg of compound was transferred into the DVS and the weight change recorded with respect to a varying atmospheric humidity at 25° C. using the following parameters: • Drying at 25° C. until dm/dt<±0.002%/min • Min time: 10 min, Max time: 180 min • Equilibrium: 60 min • Cycle: 0, 5, 10, 20, 30, 40, 50, 60, 70, 80, 90, 80, 70, 60, 50, 40, 30, 20, 10, 5, 0 • Characterize the sample after the DVS experiment by XRPD

Data set [5] in a line: Critical water activity study between Form 1 and Form 7. In kind it is physicochemical. The following applies: for XRPD result after slurry: RT, overnight. An excerpt: Critical water activity between anhydrous From 1 and hydrous Form 7 was investigated via slurry in MeOH/H2O system with various water activities at room temperature. After stirring overnight, the solids were isolated and analyzed by XRPD.

Data set [6] is described as follows: Form 2 stability via slurry in acetone and methanol/water. In kind it is physicochemical. The following applies: solids isolated at 1 h, 3 h, 5 h, 29 h. As to the method:
Form 2 stability was also evaluated via slurry in acetone and methanol/water at RT. Solids were isolated at 1 h, 3 h, 5 h and 29 h time points.

pEC50: −log10 of the molar value. A value given as a limit tells only on which side of the number the result lay.

T1 sequence (P21453 whole entry): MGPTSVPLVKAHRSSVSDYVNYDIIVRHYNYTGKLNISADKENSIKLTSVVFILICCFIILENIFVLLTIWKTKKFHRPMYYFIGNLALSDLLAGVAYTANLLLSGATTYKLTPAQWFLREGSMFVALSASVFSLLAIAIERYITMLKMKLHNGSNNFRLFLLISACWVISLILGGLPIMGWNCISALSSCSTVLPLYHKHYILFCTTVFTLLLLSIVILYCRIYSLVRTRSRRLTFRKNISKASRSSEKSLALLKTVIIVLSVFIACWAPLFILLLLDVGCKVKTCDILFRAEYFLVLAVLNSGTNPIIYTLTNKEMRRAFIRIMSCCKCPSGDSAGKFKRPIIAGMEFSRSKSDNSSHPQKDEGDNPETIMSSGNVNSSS

`O=C1CC[C@@H](Oc2cc(Cl)c(-c3noc(-c4cn5cc(C(F)(F)F)cc(Cl)c5n4)n3)cc2Cl)CN1` [Compound 1, (R)-5-(2,5-dichloro-4-(5-(8-chloro-6-(trifluoromethyl)imidazo[1,2-a]pyridin-2-yl)-1,2,4-oxadiazol-3-yl)phenoxy)piperidin-2-one] showed a pEC50 at human S1P1 of more than 6.00.
Consider `O=C1CC[C@@H](Oc2cc(Cl)c(-c3noc(-c4cn5cc(C(F)(F)F)cc(Cl)c5n4)n3)cc2Cl)CN1` [Form 1, (R)-5-(2,5-dichloro-4-(5-(8-chloro-6-(trifluoromethyl)imidazo[1,2-a]pyridin-2-yl)-1,2,4-oxadiazol-3-yl)phenoxy)piperidin-2-one], for which the “XRPD result, slurry competition Form 6 and Form 1” value is “Form 1” in data set [1] (THF, 5° C.); “Form 1” in data set [1] (THF, 50° C.); “Form 1” in data set [1] (THF, room temperature); “Form 1” in data set [1] (acetone, 5° C.); “Form 1” in data set [1] (acetone, 50° C.); “Form 1” in data set [1] (acetone, room temperature). The “Result (dissolution on heating), Experiment E” value in data set [2] (DCM 1.633 g, MeOH 0.334 g, Form 1 0.0165 g, AcOH 0.0022 g, HPMC-AS 0.0549 g) was “Dissolved at 50 °C”. Also, the “Result (clarity after stirring for 64 h), Experiment E” value in data set [2] (DCM 1.633 g, MeOH 0.334 g, Form 1 0.0165 g, AcOH 0.0022 g, HPMC-AS 0.0549 g, after stirring for 64 h) is “Clear at 25 °C after”. Further, the “Result (dissolution), Experiment C” value in data set [2] (DCM 1.633 g, MeOH 0.334 g, Form 1 0.02 g, AcOH 0.0022 g, HPMC-AS 0.0664 g) was “Hazy at 50 °C”. In addition, the “Result (dissolution on heating), Experiment D” value in data set [2] (DCM 4.083 g, MeOH 0.834 g, Form 1 0.0414 g, HPMC-AS 0.1378 g) was “Dissolved at 50 °C”. The “Result (clarity after stirring for 64 h), Experiment D” value in data set [2] (DCM 4.083 g, MeOH 0.834 g, Form 1 0.0414 g, HPMC-AS 0.1378 g, after stirring for 64 h) was “Clear at 25 °C after”. In addition, the “Result (dissolution), Experiment B” value in data set [2] (DCM 4.083 g, MeOH 0.835 g, Form 1 0.05 g, HPMC-AS 0.166 g) was “Hazy at 50 °C”. Besides, the “concentration dissolved in DCM/MeOH” value in data set [2] is 10000 µg/mL. In addition, in data set [3], the “change in HPLC purity after storage (chemical stability)” value is on record as “no substantial change in HPLC purity”. For the same compound, in data set [3], the “form change after storage (XRPD)” value is on record as “no form change”. Also, the hygroscopicity result in data set [4] (DVS) is “slightly hygroscopic”. Besides, the “Post-DVS analysis by XRPD” value in data set [4] (after DVS cycle 0-90-0% RH) is given as “no change”. This compound yielded a moisture uptake in data set [4] (between 0-80% RH) of 0.3%. Moreover, in data set [5] (MeOH/H2O slurry, water activities 0.0-1.0, RT), the “relative stability versus Form 7” value is listed as “more stable under selected conditions”.
Take `O=C1CC[C@@H](Oc2cc(Cl)c(-c3noc(-c4cn5cc(C(F)(F)F)cc(Cl)c5n4)n3)cc2Cl)CN1` [Form 2, (R)-5-(2,5-dichloro-4-(5-(8-chloro-6-(trifluoromethyl)imidazo[1,2-a]pyridin-2-yl)-1,2,4-oxadiazol-3-yl)phenoxy)piperidin-2-one]: in data set [2] (DCM 3.679 g, MeOH 0.752 g, Form 2 0.05 g, HPMC-AS 0.150 g), the “Result (dissolution), Experiment A” value was “Clear at room”. Further, in data set [2] (DCM/MeOH vehicle), the “solubility compared with Form 1” value was “better solubility than Form 1”. Moreover, the “concentration dissolved in DCM/MeOH” value in data set [2] was found to be 13000 µg/mL. The “XRPD analysis after slurry” value in data set [6] (slurry in acetone at RT) and in data set [6] (slurry in methanol/water at RT) was “Form 1 formation in both solvents within one hour” each time.
Take `O=C1CC[C@@H](Oc2cc(Cl)c(-c3noc(-c4cn5cc(C(F)(F)F)cc(Cl)c5n4)n3)cc2Cl)CN1` [Form 5, (R)-5-(2,5-dichloro-4-(5-(8-chloro-6-(trifluoromethyl)imidazo[1,2-a]pyridin-2-yl)-1,2,4-oxadiazol-3-yl)phenoxy)piperidin-2-one]: in data set [1] (heating, exothermic signal observed), the “form change during heating” value was “Form 6 formed at elevated temperature”.
With `O=C1CC[C@@H](Oc2cc(Cl)c(-c3noc(-c4cn5cc(C(F)(F)F)cc(Cl)c5n4)n3)cc2Cl)CN1` [Form 6, (R)-5-(2,5-dichloro-4-(5-(8-chloro-6-(trifluoromethyl)imidazo[1,2-a]pyridin-2-yl)-1,2,4-oxadiazol-3-yl)phenoxy)piperidin-2-one], the “thermodynamic relationship to Form 5” value in data set [1] (according to the Burger-Ramberger Rules) is “monotropically related to Form 5 and is thermodynamically more stable”.
Consider `O=C1CC[C@@H](Oc2cc(Cl)c(-c3noc(-c4cn5cc(C(F)(F)F)cc(Cl)c5n4)n3)cc2Cl)CN1` [Form 7, (R)-5-(2,5-dichloro-4-(5-(8-chloro-6-(trifluoromethyl)imidazo[1,2-a]pyridin-2-yl)-1,2,4-oxadiazol-3-yl)phenoxy)piperidin-2-one], for which the “XRPD result after slurry” value is “Form 1” in data set [5] (MeOH/H2O 0:1000, Aw 1.0); “Form 1” in data set [5] (MeOH/H2O 219:781, Aw 0.9); “Form 1” in data set [5] (MeOH/H2O 418:582, Aw 0.8); “Form 1” in data set [5] (MeOH/H2O 573:427, Aw 0.7); “Form 1” in data set [5] (MeOH/H2O 687:313, Aw 0.6); “Form 1” in data set [5] (MeOH/H2O 775:225, Aw 0.5). Moreover, the “XRPD result after slurry” value in data set [5] (MeOH/H2O 844:156, Aw 0.4) is recorded as “Form 1”; in data set [5] (MeOH/H2O 893:107, Aw 0.3), “Form 1”; in data set [5] (MeOH/H2O 937:63, Aw 0.2), “Form 1”; in data set [5] (MeOH/H2O 1000:0, Aw 0.0) it was “Form 1”. For the same compound, in data set [5] (all water activities at RT, stirring overnight), the “form conversion in MeOH/H2O slurry” value is given as “converted to Form 1”.
